Reference: article PMC4706877, “Antibacterial and Cytotoxic Activity of Compounds Isolated from Flourensia oolepis” (Evidence-based Complementary and Alternative Medicine : eCAM, 2015)
In brackets after ≈: the same amount, converted by molar mass. Like-named read-outs stand apart in the source and are kept apart here.

What was measured:
[1] = test system: Escherichia coli (ATCC 25922); experiment: Agar dilution MIC / MBC; type: cell-based; settings: ATCC25922, E. coli
Experimental: (§1) This isolate was identified by conventional biochemical assays and by the commercial system API20E (bioMérieux SA, Mercy L'Etoile, France). Antimicrobial resistances were determined by disk diffusion susceptibility testing (Kirby-Bauer Method) according to CLSI [15]. Bacterial suspensions were prepared on sterile saline from each organism grown overnight. Turbidity was spectrophotometrically adjusted to the McFarland 0.5 standard. Dilutions were carried out with sterile saline to give an adjusted concentration of 1.5 × 10^7 colony-forming units/mL.
(§2) Three independent experiments were carried out. […] For reading, visual observations were carried out.

[2] = test system: Pseudomonas aeruginosa (ATCC 27853); experiment: Agar dilution MIC / MBC; type: cell-based; settings: ATCC27853, P. aeruginosa
Experimental: as §1, §2

[3] = test system: tetracycline, erythromycin, and polymyxin-resistant Proteus mirabilis (Pr2921); experiment: Agar dilution MIC / MBC; type: cell-based; settings: P. mirabilis
Experimental: as §1, §2

[4] = test system: Enterococcus faecalis (ATCC 29212); experiment: Agar dilution MIC / MBC; type: cell-based; settings: ATCC29212, E. faecalis
Experimental: as §1, §2

[5] = test system: Staphylococcus aureus subsp. aureus (ATCC 6538); experiment: Agar dilution MIC / MBC; type: cell-based; settings: S. aureus; for MBC: value in parentheses
Experimental: as §1, §2

normal hepatocytes = test system: normal hepatocytes; set-up: method as in PMID 15223357; settings: trypan blue exclusion method; cited from earlier work
[6] = test system: CEM/ADR5000 cells (MDR, P-glycoprotein overexpressing); experiment: cells; type: cell-based, human; settings: for IC50: CEM/ADR5000, MTT, 72 h, read-out: IC50 values and 95% confidence limits (lower, upper)
Experimental: (§3) The HEK293T non-tumor derived cell line and human isolated mononuclear cells (PBMC) were also tested. […] Cells were cultured at 37°C in a 5% CO2 humidified environment.
(§4) The latter concentration was then used for maintenance of the cells. Lucena 1 were continuously cultured in the presence of 60 nM DOX. Both cell lines were grown in drug-free medium 3-4 days before the experiments. Overexpression of P-glycoprotein (P-gp) in both MDR variants was verified by flow cytometry using FITC-labeled mouse anti-human P-gp (BD Pharmingen, USA). Cells were subcultured twice a week from frozen stocks and used before the 20th passage. All experiments were performed with cells in the logarithmic growth phase with cell viabilities over 90%, determined by trypan blue staining.
(§5) To investigate the cytotoxic potential of the isolated compounds, the MTT colorimetric assay was performed. […] The compounds were evaluated at a final maximum concentration of 100 μM. After 72 hours, 20 μL of 5 mg/mL solution of MTT in sterile PBS was added to each well and further incubated for 4 h. Then, the supernatants were removed and replaced with 100 μL DMSO to solubilize the resulting purple formazan crystals produced from metabolically viable cells. Absorbance was measured with an iMark micro-plate reader (Bio-Rad, USA) at 595 nm. Two wells were used for each concentration of the products assayed and three independent experiments were performed. […] The percentage of cytotoxic activity of the assayed compounds was determined by the following formula: cytotoxicity (%) = [1 − (optical density of treated cells − optical density DMSO)/(optical density of ethanol control cells − optical density DMSO)] × 100.
(§6) Data were analyzed by one-way analysis of variance (ANOVA) and means were compared using Bonferroni's comparison test, with p ≤ 0.05 considered as statistically significant.

[7] = test system: Lucena 1 cells (MDR, P-glycoprotein overexpressing); experiment: cells; type: cell-based, human; settings: for IC50: Lucena 1, MTT, 72 h, read-out: IC50 values and 95% confidence limits (lower, upper)
Experimental: as §3, §4, §5, §6

[8] = test system: sensitive and resistant leukemic cells; experiment: MTT assay, summary over leukemic cell lines; type: cell-based; settings: Homo sapiens, read-out: IC50 values, range
Source text: CCRF-CEM acute lymphoblastic leukemia (ALL) and K562 chronic myeloid leukemia (CML) cells and their MDR P-glycoprotein overexpressing variants, CEM/ADR5000 and Lucena 1, respectively, were a generous gift from Dr. T. Efferth (Institute of Pharmacy and Biochemistry, Johannes Gutenberg University, Mainz, Germany) and Dr. V. Rumjanek (Instituto de Bioquímica Médica Leopoldo de Meis, Universidade Federal do Rio de Janeiro, Rio de Janeiro, Brazil), respectively. The HEK293T non-tumor derived cell line and human isolated mononuclear cells (PBMC) were also tested. […]
To investigate the cytotoxic potential of the isolated compounds, the MTT colorimetric assay was performed. […] The compounds were evaluated at a final maximum concentration of 100 μM. […] Absorbance was measured with an iMark micro-plate reader (Bio-Rad, USA) at 595 nm. […] The percentage of cytotoxic activity of the assayed compounds was determined by the following formula: cytotoxicity (%) = [1 − (optical density of treated cells − optical density DMSO)/(optical density of ethanol control cells − optical density DMSO)] × 100.

Structure (SMILES): O=C(/C=C/c1ccccc1)c1ccc(O)cc1O [Compound 1, 2′,4′-dihydroxychalcone]
- MIC ([1]; agar dilution, 24 h): 250 µg/mL (≈ 1040 µM)
- MBC ([1]; value in parentheses): 500 µg/mL (≈ 2080 µM)
- MIC ([2]; agar dilution, 24 h): 250 µg/mL (≈ 1040 µM)
- MBC ([2]; value in parentheses): > 500 µg/mL
- MIC ([3]; agar dilution, 24 h): 62 µg/mL (≈ 258 µM)
- MBC ([3]; value in parentheses): 125 µg/mL (≈ 520 µM)
- MIC ([4]; agar dilution, 24 h): 62 µg/mL (≈ 258 µM)
- MBC ([4]; value in parentheses): 125 µg/mL (≈ 520 µM)
- MBC [5]: 31 (31) μg/mL
- MIC ([5]; Staphylococcus aureus, ATCC6538, agar dilution, 24 h): 31 µg/mL (≈ 129 µM)
- MBC ([5]; Staphylococcus aureus, ATCC6538, read-out: MBC): 31 µg/mL (≈ 129 µM)
- IC50 (normal hepatocytes): 34 µg/mL (≈ 142 µM)
- IC50 [6]: 9.9 µM
- resistant index (RI) = IC50 resistant cells/IC50 sensitive cells ([6]; CEM/ADR5000 vs CCRF-CEM): 1.5
- IC50 ([6]; Homo sapiens, ADR5000, 72 h): < 10 µM
- selectivity index (IC50 ratio) ([6]; IC50 HEK293T / IC50 CEM/ADR5000): 6.8
- selectivity index (IC50 ratio) ([6]; IC50 PBMC / IC50 CEM/ADR5000): 8.4
- IC50 ([7]; Homo sapiens, Lucena 1, 72 h): < 30 µM
- IC50 [7]: 30 µM
- resistant index (RI) = IC50 resistant cells/IC50 sensitive cells ([7]; Lucena 1 vs K562): 1.1
- IC50 [8]: 6.6 to 30 µM
